From the NIST ThermoML archive (doi:10.1016/j.jct.2015.12.029)

Experiment: mn = molality of the nth substance listed, in mol/kg
Conditions: 100 kPa, Liquid; for molar conductivity: Alternating current cell with electrodes; for mass density: Vibrating tube method, m1 = 0.009007

CCCCn1cc[n+](C)c1.F[B-](F)(F)F [1-butyl-3-methylimidazolium tetrafluoroborate] + CCCCO
molar conductivity [S·m2/mol]
Conditions	283.15 K	288.15 K	293.15 K	298.15 K	303.15 K	308.15 K	313.15 K	318.15 K
m1 = 7.252e-05	0.00118	0.00135	0.00154	0.00177	0.00199	0.00224	0.0025	0.00278
m1 = 0.0001049	0.00114	0.0013	0.00148	0.00169	0.00191	0.00214	0.00238	0.00264
m1 = 0.0001948	0.00103	0.00118	0.00135	0.00154	0.00173	0.00193	0.00214	0.00237
m1 = 0.0002951	0.000958	0.00109	0.00125	0.00142	0.00158	0.00177	0.00197	0.00217
m1 = 0.0004065	0.000896	0.00102	0.00116	0.00132	0.00147	0.00164	0.00182	0.00201
m1 = 0.000564	0.000826	0.000939	0.00107	0.00121	0.00135	0.00151	0.00168	0.00184
m1 = 0.000759	0.000763	0.000869	0.000986	0.00112	0.00125	0.00139	0.00154	0.00169
m1 = 0.0009843	0.000711	0.000808	0.000917	0.00104	0.00116	0.00129	0.00143	0.00156
m1 = 0.001432	0.000635	0.000719	0.000816	0.000925	0.00103	0.00114	0.00126	0.00138
m1 = 0.001963	0.000573	0.000648	0.000736	0.000834	0.00093	0.00103	0.00114	0.00125
m1 = 0.003008	0.000498	0.000562	0.000639	0.00072	0.000807	0.000896	0.00099	0.00108

Conditions	mass density [kg/m3]
283.15 K	817.699
288.15 K	813.937
293.15 K	810.147
298.15 K	806.337
303.15 K	802.5
308.15 K	798.633
313.15 K	794.73
318.15 K	790.785
